Eight compounds from publication PMC9048505 (RSC Advances, 2020) can be followed below.

SMILES strings stand for the structures. Some results are limits rather than exact numbers.

The target of data set [1] is T1, purified bovine tubulin (Bos taurus, UniProt P81947+Q6B856).
T1 construct: purified bovine tubulin (10 μM); from tissue; host or cells: bovine
The experiment in a line: In vitro tubulin polymerization assay. Conditions: purified bovine tubulin 10 μM, 37 °C; read-out: IC50 Tubulin polymerization inhibition. It counts as biochemical. The procedure: The inhibition assay on microtubule polymerization was evaluated turbidimetrically using a fluorescent plate reader.[52]

Data set [2] concerns HCT-116. The experiment in a line: In vitro anti-proliferative activity, MTT assay, HCT-116. The format is cell-based, human. Conditions: for IC50: Homo sapiens, HCT-116, MTT, 24 h treatment, mean ± S.D. of three separate experiments. On the procedure: (§1) The cells were obtained from ATCC (American Type Culture Collection) via the Holding company for biological products and vaccines (VACSERA) (Cairo, Egypt). […] After incubation period, the cell lines were treated with different concentration of the synthesized compounds and incubated for 24 h. After treatment by 24 h, 20 μL of MTT solution (5 mg mL^−1) was added and incubated for 4 h. Dimethyl sulfoxide (100 μL) was added into each well to dissolve the formed purple formazan. […] The relative cell viability in percentage was calculated as (A570 of treated samples/A570 of untreated sample) X 100.
For orientation: Tetrazolium dyes change colour on reduction, which living cells bring about.

The test system of data set [3] is MCF-7. In words: In vitro anti-proliferative activity, MTT assay, MCF-7. It counts as cell-based, human. Conditions: for IC50: Homo sapiens, MCF7, MTT, 24 h treatment, mean ± S.D. of three separate experiments. The procedure:
as §1

Data set [4] has as its system HepG-2. In words: In vitro anti-proliferative activity, MTT assay, HepG-2. It counts as cell-based, human. To be noted: for IC50: Homo sapiens, HepG2, MTT, 24 h treatment, mean ± S.D. of three separate experiments. The procedure: as §1
The subject of data set [5] is HepG-2 cells. In words: Annexin V-FITC apoptosis assay. It counts as cell-based, human. To be noted: HepG-2, 5a at 2.5 μM for 24 h. The procedure: To further confirm Apoptotic effect of compound 5a in HepG-2 cells, Annexin V and PI double staining assay was performed.[55] In this test, HepG-2 cells were incubated with compound 5a at concentration of 2.5 μM for 24 h.
The effect of the most cytotoxic compound 5a on apoptosis induction was analyzed using Annexin V-FITC/PI apoptosis detection kit. In this test, HepG-2 cells were stained with Annexin V fluorescein isothiocyanate (FITC) and counterstained with propidium iodide (PI). Then, HepG-2 cells in a density of 2 × 10^5 per well were incubated with compound 5a for […]. Next, the cells were trypsinized, washed with phosphate-buffered saline (PBS), and stained for 15 min at 37 °C in the dark. Finally, FACS Caliber flow cytometer was used in analysis process.[55]

In data set [6] the test system is HepG-2 cells. In words: Cell cycle analysis (PI staining, flow cytometry). The format is cell-based, human. The procedure:
To gain a better insight into the impact of compound 5a on cancer cell growth inhibition, its impact on cell cycle distribution and apoptosis induction was assessed using HepG-2 cells according to the method outlined by Wang et al.[53] In fact, anticancer agents hinder cancer cell growth and multiplication by arresting cell division at distinct checkpoints, and that cells resist apoptosis are highly resistant to cancer treatment.[54]
HepG-2 cells were seeded at density of 2 × 10^5 cells per well and incubated for 24 h in six-well plates. Fetal bovine serum (FBS, 10%) was added, after that cells were incubated at 37 °C and 5% CO2. The medium was replaced with (DMSO 1% v/v) containing the 2.5 μM of compound 5a, then incubated for 48 h, washed with cold phosphate buffered saline (PBS), fixed with 70% ethanol, rinsed with PBS then stained with the DNA fluorochrome PI, kept for 15 min at 37 °C. Then samples were analyzed with a FACS Caliber flow cytometer.[53]
In general terms: In flow cytometry, cells or beads pass a laser one at a time.

T1 sequence (Q6B856 whole entry): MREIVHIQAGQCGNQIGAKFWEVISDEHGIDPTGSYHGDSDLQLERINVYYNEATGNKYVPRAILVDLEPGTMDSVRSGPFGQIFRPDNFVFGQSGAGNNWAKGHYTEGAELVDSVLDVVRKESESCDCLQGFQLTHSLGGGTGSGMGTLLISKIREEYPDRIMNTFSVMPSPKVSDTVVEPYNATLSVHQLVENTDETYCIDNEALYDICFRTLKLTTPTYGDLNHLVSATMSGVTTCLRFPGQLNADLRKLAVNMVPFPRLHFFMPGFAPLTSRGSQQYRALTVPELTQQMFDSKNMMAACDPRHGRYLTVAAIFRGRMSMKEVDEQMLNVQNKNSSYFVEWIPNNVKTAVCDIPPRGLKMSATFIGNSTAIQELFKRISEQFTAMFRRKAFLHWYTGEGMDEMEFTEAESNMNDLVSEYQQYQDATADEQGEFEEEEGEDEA
T1 sequence (P81947 whole entry): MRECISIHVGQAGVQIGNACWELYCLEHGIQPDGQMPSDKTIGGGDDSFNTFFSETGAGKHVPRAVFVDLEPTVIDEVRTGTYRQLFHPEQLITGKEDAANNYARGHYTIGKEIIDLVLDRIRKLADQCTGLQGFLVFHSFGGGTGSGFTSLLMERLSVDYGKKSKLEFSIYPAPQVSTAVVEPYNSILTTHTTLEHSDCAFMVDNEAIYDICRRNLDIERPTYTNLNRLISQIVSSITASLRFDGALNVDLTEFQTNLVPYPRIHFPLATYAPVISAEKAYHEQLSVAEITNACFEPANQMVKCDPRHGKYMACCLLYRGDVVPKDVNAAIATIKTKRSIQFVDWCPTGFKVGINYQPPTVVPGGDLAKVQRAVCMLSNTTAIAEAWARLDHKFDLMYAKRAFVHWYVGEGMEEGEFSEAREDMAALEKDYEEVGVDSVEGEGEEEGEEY

Take `C/C(=N\NC1=N/C(=C/c2cccs2)C(=O)S1)c1ccc(C)cc1` [Compound 5a, (E)-4-(Thiophen-2-ylmethylene)-2-(2-((E)-1-(p-tolyl)ethylidene)hydrazinyl) thiazol-5(4H)-one]: the melting point (as a rule, the temperature of the solid-liquid transition) is 202 to 204 °C. For the same compound, the IC50 (in general, the point on the concentration scale where inhibition reaches its midpoint) in data set [1] came out at 0.00952 ± 0.0003 µM. The compound also registered an IC50 in data set [2] of 6.41 ± 0.1 µM. Moreover, the “times as active as colchicine against HCT-116” value in data set [2] (ratio of IC50 values) is recorded as 1.45 times. In addition, in data set [3], the 50% inhibitory concentration (IC50) stood at 4.51 ± 0.6 µM. Moreover, the “times as active as colchicine against MCF-7” value in data set [3] (ratio of IC50 values) was found to be 2.32 times. The IC50 in data set [4] was 3.34 ± 0.1 µM. Also, the “times as active as colchicine against HepG-2” value in data set [4] (ratio of IC50 values) was found to be 2.23 times. In data set [5] (control 0.48), this compound had a Necrosis of 1.54%. Also, the “Apoptosis Late” value in data set [5] (control 0.64) amounted to 5.54%. Further, the “Apoptosis Early” value in data set [5] (control 1.02) was 8.25%. The “Apoptosis Total” value in data set [5] (control 2.14) is on record as 15.33%. In data set [6] (HepG-2, 5a at 2.5 μM for 48 h, control 2.14), the “Cell cycle distribution % Pre-G1” value came to 15.33%. Further, the “Cell cycle distribution % G2-M” value in data set [6] (HepG-2, 5a at 2.5 μM for 48 h, control 5.09) was 20.55%. The “Cell cycle distribution % S” value in data set [6] (HepG-2, 5a at 2.5 μM for 48 h, control 38.15) was determined as 39.28%. The “Cell cycle distribution % G0-G1” value in data set [6] (HepG-2, 5a at 2.5 μM for 48 h, control 56.76) is listed as 40.17%. In addition, in data set [6] (HepG-2 cells), the “effect on cell cycle” value is listed as “cell arrest at G2/M phase”.

`C/C(=N\NC1=N/C(=C/c2ccc(O)cc2O)C(=O)S1)c1cccs1` [Compound 8f, 4-((E)-2,4-Dihydroxybenzylidene)-2-(2-((E)-1-(thiophen-2-yl)ethylidene) hydrazinyl) thiazol-5(4H)-one] showed a melting point greater than 300 °C. Further, the IC50 in data set [1] turned out to be 0.0116 ± 0.0002 µM. Further, inhibition in data set [2] was half-maximal at 8.96 ± 0.2 µM (IC50). Besides, it took 7.65 ± 0.2 µM to reach half-maximal inhibition in data set [3] (IC50). In data set [4], this compound came in with an IC50 of 3.23 ± 0.1 µM.

Compound `COc1ccc(/C=C2/N=C(N/N=C(\C)c3ccco3)SC2=O)cc1` [Compound 8g, 2-(2-((E)-1-(Furan-2-yl)ethylidene)hydrazinyl)-4-((E)-4-methoxybenzylid-ene)thiazol-5(4H)-one] registered a melting point of 288 to 290 °C. In data set [1], the IC50 was found to be 0.0142 ± 0.0003 µM. Further, 6.59 ± 0.1 µM corresponded to half-maximal inhibition in data set [2] (IC50). This compound also displayed an IC50 in data set [3] of 9.29 ± 0.1 µM. Also, it took 4.69 ± 0.1 µM to reach half-maximal inhibition in data set [4] (IC50).

The compound `C/C(=N\NC1=N/C(=C/c2ccc(Cl)cc2)C(=O)S1)c1ccco1` [Compound 8h, 4-((E)-4-Chlorobenzylidene)-2-(2-((E)-1-(furan-2-yl)ethylidene)hydra-zinyl)thiazol-5(4H)-one] registered a melting point of 272 to 274 °C. In data set [1], the IC50 stood at 0.0384 ± 0.0014 µM. This compound returned a half-maximal inhibitory concentration (IC50) in data set [2] of 12 ± 0.3 µM. Besides, the IC50 in data set [3] was found to be 20 ± 0.4 µM. This compound also had a half-inhibitory concentration (IC50) in data set [4] of 10.3 ± 0.6 µM.

For `C/C(=N\NC1=N/C(=C/c2ccc(O)cc2)C(=O)S1)c1ccco1` [Compound 8i, 2-(2-((E)-1-(Furan-2-yl)ethylidene)hydrazinyl)-4-((E)-4-hydroxybenzylid-ene)thiazol-5(4H)-one], the melting point was 293 to 295 °C. Further, the 50% inhibitory concentration (IC50) in data set [1] is 0.0478 ± 0.0021 µM. Moreover, inhibition in data set [2] was half-maximal at 15.6 ± 0.4 µM (IC50). Besides, 22.7 ± 0.7 µM corresponded to half-maximal inhibition in data set [3] (IC50). The compound also returned an IC50 in data set [4] of 12.5 ± 0.2 µM.

The compound `COc1ccc(/C=C2/N=C(N/N=C(\C)c3ccco3)SC2=O)cc1OC` [Compound 8k, 4-((E)-3,4-Dimethoxybenzylidene)-2-(2-((E)-1-(furan-2-yl)ethylidene)hydra-zinyl)thiazol-5(4H)-one] registered a melting point of 240 to 242 °C. Besides, in data set [1], the 50% inhibitory concentration (IC50) was determined as 0.0135 ± 0.0008 µM. Further, the IC50 in data set [2] turned out to be 5.55 ± 0.1 µM. It took 9.15 ± 0.2 µM to reach half-maximal inhibition in data set [3] (IC50). This compound had an IC50 in data set [4] of 4.58 ± 0.1 µM.

The compound `C/C(=N\NC1=N/C(=C/c2ccc(O)cc2O)C(=O)S1)c1ccco1` [Compound 8l, 4-((E)-2,4-Dihydroxybenzylidene)-2-(2-((E)-1-(furan-2-yl)ethylidene) hydrazinyl) thiazol-5(4H)-one] registered a melting point of 282 to 284 °C. Moreover, in data set [1], the IC50 was 0.0132 ± 0.0009 µM. Also, the midpoint of inhibition in data set [2], the IC50, lay at 10.28 ± 0.1 µM. In data set [3], this compound displayed an IC50 of 7.89 ± 0.5 µM. Besides, the concentration for half-maximal inhibition (IC50) in data set [4] came to 3.73 ± 0.1 µM.

Take `C/C(=N\NC1=N/C(=C/c2cccs2)C(=O)S1)c1cccs1` [Compound 9a, (E)-2-(2-((E)-1-(Thiophen-2-yl)ethylidene)hydrazinyl)-4-(thiophen-2-ylmethylene)thiazol-5(4H)-one]: the melting point fell in the range of 214 to 216 °C. In addition, the IC50 in data set [1] was determined as 0.0391 ± 0.001 µM. Half-maximal inhibition in data set [2] (IC50) required 24.2 ± 0.7 µM. Further, 33.6 ± 0.9 µM corresponded to half-maximal inhibition in data set [3] (IC50). Further, the IC50 in data set [4] was 21.9 ± 0.9 µM.
